In one assay the test system is HaCat cells. The assay can be described thus: Wound-healing test by time-lapse microscopy (keratinocyte growth). The settings on record: for time to wound repair (closure of the cut): HaCat confluent layer with cut, time-lapse, control closes after 40 h; for effect on the repair process: concentration of 0.1 w/v. In kind it is cell-based, human. As to the method: HaCat cells, an immortalised cell line of human keratinocytes, are used as model system. The HaCat cells are grown and amplified in Dulbecco's Modified Eagle Medium (DMEM) containing 10% foetal bovine serum (FBS)+1% Pen-Strep solution (10,000 units of penicillin-G/mL and 10 mg of streptomycin/mL in saline solution) in an incubator for cell cultures (37° C., 5% CO2 in humid air). The wound-healing experiments are conducted by time-lapse optical microscopy, a technique that allows cell behaviour to be monitored for lengthy times (2-4 days) in terms of adhesion, proliferation and motility. The system consists of an inverted optical microscope (Zeiss Axiovert 200), a thermostatic bath (LAUDA Ecoline), a CO2 microincubator with geometry such as to house plates of variable dimensions (from 6 to 96 wells), and a control unit for the output gases (air and CO2). The instrument is also equipped with a digital video camera and a control motor, which allows the incubator to move along directions x, y and z so that the images selected by the operator can be recorded and acquired at pre-set intervals.
The system thus assembled allows the cells to be maintained in an environment that reproduces the optimum conditions for cell growth (atmosphere with 5% v/v of CO2 in humid air and temperature of 37±0.1° C.), and monitored throughout the experiment. The system is also equipped with software which allows accurate analysis of the images. In particular, the instrumentation is equipped with automated software which allows wound repair to be calculated in wound-healing tests and provides data about the repair rate and cell migration rate, which are important parameters for evaluating the biorevitalising effect of substances that can accelerate or inhibit wound repair in vitro. […]

Another assay concerns Collagen Type II. The assay is described as follows: Real-Time PCR gene expression in human chondrocytes: type II collagen. The format is cell-based. The settings on record: 1% w/v, ratio to untreated control. As to the method: To evaluate the biological effects of chondroitin on human chondrocyte cultures, the expression of a set of genes considered key to establishing the phenotype, and suitable markers for evaluating the quality of the tissue generated, was determined. The study was conducted on chondrocytes prepared from human cartilage, as reported in Example 2, the cells being grown in the presence of chondroitin or chondroitin sulphate. Using a standard procedure, 5*10^4 cells per well were seeded in a 24-well multiwell plate. The chondrocytes were grown in DMEM containing 1% w/v of chondroitin or chondroitin sulphate (endotoxin content ≤0.1 EU/mg). The cells were stimulated for 4, 7 and 10 days (Ishak et al., International J. of Pediatric Otorhinolaryngology, 2011, 75: 835-840), after which the RNA was extracted with Trizol Reagent, as described in the kit manual (Life Technologies Ltd, Milan, Italy). A qualitative morphological analysis of the cell culture was also conducted at the various times, in parallel with RNA extraction, by observing the corresponding samples at 4, 7 and 10 days under the optical microscope. The cells seeded at the three different times were observed under the microscope, and the images that best represented the cell growth conditions were acquired using a time-lapse videomicroscopy workstation. After RNA extraction, reverse transcription was performed with a total of 1 μg RNA and then with amplification by Real-Time PCR of genes which are specific markers for chondrocytes (Table 3).
Genes connected with matrix production, such as aggrecan, type I collagen, type II collagen and the Sox9 gene, the expression of which is closely correlated with the expression of type II collagen, were analysed as specific markers for differentiation and characterisation of chondrocytes. (Akiyama H., Mod Rheumatol., 2008, 18(3): 213-9; Yang et al., J. of Orthopaedic Res. 2011).
The gene expression of said markers on human chondrocytes cultured in basic medium (control) and with chondroitin treatment (C) or chondroitin sulphate treatment (CS) was analysed on cell cultures in the second and third growth phases.
The results of the gene expression analysis were reported as the average of at least 3 independent experiments for tests conducted in the presence of C or CS, on cells in phases 2 and 3.

The next assay relates to type II collagen. The assay is described as follows: Phenotype analysis with immunohistochemical tests on human chondrocytes. The format is cell-based. As to the method: The evaluation of the chondrocyte phenotype of fresh cells extracted from human cartilage tissue samples and after 4, 7 and 10 days' growth in medium containing chondroitin or chondroitin sulphate was conducted with immunohistochemical tests, using the Envision+(DaKo) kit which uses an antibody for type II collagen, considered to be a specific marker for chondrocyte differentiation (Stokes et al., Biochem. J., 2001, 360:461-470).

With chondroitin, the “time to wound repair (closure of the cut)” value with HaCat cells is listed as “less than 20 h”. Moreover, the “effect on the repair process” value in the assay on HaCat cells is “accelerates the repair process”. Moreover, the “Fold Expression, Collagen Type II” value with Collagen Type II (phase II, 4 g) was 2.70 ± 0.32; in the assay with Collagen Type II (phase II, 7 g), 2.4 ± 0.43; with Collagen Type II (phase II, 10 g), 2.56 ± 0.75; with Collagen Type II (phase III, 4 g) it was 1.69 ± 0.20; in the assay with Collagen Type II (phase III, 7 g) it was 2.62 ± 0.47; in the assay on Collagen Type II (phase III, 10 g), 2.3 ± 0.16. Also, the “positivity to type II collagen” value with type II collagen (after 4 days' treatment) was “strong positivity to type II collagen”; in the assay with type II collagen (longer times (7 and 10 days)), “only maintained for longer times (7 and 10 days) in the cells treated with chondroitin”.

Regarding “chondroitin sulphate [CS, reference compound]”, the “time to wound repair (closure of the cut)” value in the assay on HaCat cells is more than 70 h. Besides, the “effect on the repair process” value in the assay on HaCat cells is on record as “slows it”. Besides, the “Fold Expression, Collagen Type II” value came out at 2.8 ± 0.75 in the assay on Collagen Type II (phase II, 4 g); 1.25 ± 0.45 in the assay on Collagen Type II (phase II, 7 g); 0.58 ± 0.29 in the assay on Collagen Type II (phase II, 10 g); 0.50 ± 0.01 with Collagen Type II (phase III, 4 g); 0.8 ± 0.45 with Collagen Type II (phase III, 10 g). In addition, the “positivity to type II collagen” value with type II collagen (after 4 days' treatment) was “strong positivity to type II collagen”.
